# According to BindingDB's records for doi:10.1021/acs.jmedchem.0c00996 (Albany College of Pharmacy and Health Sciences, 2020):
# pIC50: −log10 of the molar value.
# Molecular target: Retinol-binding protein 4 (Homo sapiens, UniProt P02753)
# Assay: Displacement of [3H]-all-trans-retinol from biotinylated human urine derived RBP4 measured after 16 hrs by scintillation proximity assay
smiles,measurement,value
Cc1cc(C(=O)O)nc(N2CCC(COc3ccccc3C(F)(F)F)C2)n1 (stereo unspecified),pIC50,7.10
